What all share (format): biochemical
The target of experiment [1] is T1, Flt3 kinase (Homo sapiens, UniProt P36888).
T1 construct: purchased Millipore (KinaseProfiler service) and/or Reaction Biology Corp. (Kinase HotSpot service)
T1 sequence (P36888 27-993): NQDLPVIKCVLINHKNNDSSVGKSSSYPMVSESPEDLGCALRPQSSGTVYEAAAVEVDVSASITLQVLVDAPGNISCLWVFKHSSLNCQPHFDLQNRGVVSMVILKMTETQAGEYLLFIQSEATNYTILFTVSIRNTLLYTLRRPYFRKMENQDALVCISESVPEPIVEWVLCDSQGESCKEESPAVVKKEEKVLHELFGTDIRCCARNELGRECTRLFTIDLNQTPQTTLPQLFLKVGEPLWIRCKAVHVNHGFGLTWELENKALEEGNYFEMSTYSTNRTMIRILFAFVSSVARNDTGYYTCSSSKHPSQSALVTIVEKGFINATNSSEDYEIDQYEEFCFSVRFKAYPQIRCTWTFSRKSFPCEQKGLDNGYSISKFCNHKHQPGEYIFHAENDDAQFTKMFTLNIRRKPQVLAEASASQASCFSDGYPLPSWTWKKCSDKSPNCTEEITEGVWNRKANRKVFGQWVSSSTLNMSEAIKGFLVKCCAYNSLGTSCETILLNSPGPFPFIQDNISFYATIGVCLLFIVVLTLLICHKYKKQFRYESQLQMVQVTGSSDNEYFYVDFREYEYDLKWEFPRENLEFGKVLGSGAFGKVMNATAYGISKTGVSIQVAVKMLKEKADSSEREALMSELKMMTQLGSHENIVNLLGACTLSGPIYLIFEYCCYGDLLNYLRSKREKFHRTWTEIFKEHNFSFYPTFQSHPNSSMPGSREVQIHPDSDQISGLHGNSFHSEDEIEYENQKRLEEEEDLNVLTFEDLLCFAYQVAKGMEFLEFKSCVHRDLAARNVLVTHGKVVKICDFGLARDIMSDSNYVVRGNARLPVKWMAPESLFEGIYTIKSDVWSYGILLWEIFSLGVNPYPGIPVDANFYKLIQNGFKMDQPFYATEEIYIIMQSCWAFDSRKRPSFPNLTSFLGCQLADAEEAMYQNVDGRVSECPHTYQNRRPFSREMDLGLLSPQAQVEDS
Kind of experiment: Flt3 kinase assay (KinaseProfiler / Kinase HotSpot). The following applies: compound at 1 μM. As for the experimental part:
(§1) This example illustrated c-Src kinase, Aurora-A kinase, Flt3 kinase, Ret kinase and TrkA Kinase Assays of selected Compounds from this invention (referred to Daniele Fancelli et al, J. Med. Chem., 2006, 49 (24), pp 7247-7251). The KinaseProfiler™ Service Assay Protocols (Millipore) were used to test the kinase inhibiting activity of novel compounds from this invention. To do this, the buffer composition was as: 20 mM MOPS, 1 mM EDTA, 0.01% Brij-35, 5% Glycerol, 0.1% β-mercaptoethanol, 1 mg/mL BSA. Test compounds were initially dissolved in DMSO at the desired concentration, then serially diluted to the kinase assay buffer. In a final reaction volume of 25 μL, Aurora-A(h) (5-10 mU) is incubated with 8 mM MOPS pH 7.0, 0.2 mM EDTA, 200 μM LRRASLG (Kemptide), 10 mM MgAcetate and [γ^33P-ATP]. The reaction was initiated by the addition of the MgATP mix. After incubation for 40 minute at room temperature, the reaction was stopped by addition of 5 μL of a 3% phosphoric acid solution. 10 μL of the reaction was then spotted onto a P30 filtermat and washed three times for 5 minutes in 50 mM phosphoric acid and once in methanol prior to drying and scintillation counting. Wells containing substrate but no kinase and wells containing a phosphopeptide control were used to set 0% and 100% phosphorylation value, respectively.
(§2) Also Kinase Hotspot ^SM kinase assay was used to test the compounds for IC50 or % inhibitions (Reaction Biology Corp.). Inhibitor IC50 values were determined by titration of compound at the optimal kinase concentration (Kinase EC50).

The target of experiment [2] is T2, Ret kinase (Homo sapiens, UniProt P07949).
T2 construct: purchased Millipore (KinaseProfiler service) and/or Reaction Biology Corp. (Kinase HotSpot service)
T2 sequence (P07949 29-1114): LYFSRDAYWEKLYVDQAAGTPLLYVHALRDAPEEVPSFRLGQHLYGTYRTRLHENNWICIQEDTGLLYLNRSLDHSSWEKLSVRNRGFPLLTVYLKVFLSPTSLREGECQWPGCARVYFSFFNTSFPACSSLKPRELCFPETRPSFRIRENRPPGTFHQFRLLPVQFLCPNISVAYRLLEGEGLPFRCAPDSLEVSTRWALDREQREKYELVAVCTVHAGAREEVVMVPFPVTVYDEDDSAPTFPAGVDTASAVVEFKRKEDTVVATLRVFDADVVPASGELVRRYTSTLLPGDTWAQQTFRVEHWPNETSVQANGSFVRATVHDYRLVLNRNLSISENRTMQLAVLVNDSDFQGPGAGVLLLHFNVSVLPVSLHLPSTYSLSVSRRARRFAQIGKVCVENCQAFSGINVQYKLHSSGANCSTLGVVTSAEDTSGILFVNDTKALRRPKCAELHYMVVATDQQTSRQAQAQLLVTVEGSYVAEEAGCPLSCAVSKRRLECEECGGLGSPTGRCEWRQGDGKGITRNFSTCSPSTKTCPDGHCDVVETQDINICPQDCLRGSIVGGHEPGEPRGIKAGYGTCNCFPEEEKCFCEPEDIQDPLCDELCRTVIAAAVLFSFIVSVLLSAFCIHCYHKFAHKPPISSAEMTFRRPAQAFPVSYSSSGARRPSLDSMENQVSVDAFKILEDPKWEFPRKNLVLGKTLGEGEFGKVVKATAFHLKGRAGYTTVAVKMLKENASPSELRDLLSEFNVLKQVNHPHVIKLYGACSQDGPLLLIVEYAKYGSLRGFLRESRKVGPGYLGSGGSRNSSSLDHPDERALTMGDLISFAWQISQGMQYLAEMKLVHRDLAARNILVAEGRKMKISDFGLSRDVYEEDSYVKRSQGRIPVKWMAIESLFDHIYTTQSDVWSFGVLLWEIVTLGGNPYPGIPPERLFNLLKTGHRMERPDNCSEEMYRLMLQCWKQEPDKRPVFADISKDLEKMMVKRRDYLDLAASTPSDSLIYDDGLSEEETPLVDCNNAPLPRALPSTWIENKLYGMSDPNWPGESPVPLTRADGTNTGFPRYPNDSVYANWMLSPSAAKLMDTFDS
The experiment in a line: Ret kinase assay (KinaseProfiler / Kinase HotSpot). Conditions: compound at 1 μM. Here is the method:
as §1, §2

The target of experiment [3] is T3, Aurora-A kinase (Homo sapiens, UniProt O14965).
T3 construct: purchased Millipore (KinaseProfiler service) and/or Reaction Biology Corp. (Kinase HotSpot service)
T3 sequence (O14965 1-403): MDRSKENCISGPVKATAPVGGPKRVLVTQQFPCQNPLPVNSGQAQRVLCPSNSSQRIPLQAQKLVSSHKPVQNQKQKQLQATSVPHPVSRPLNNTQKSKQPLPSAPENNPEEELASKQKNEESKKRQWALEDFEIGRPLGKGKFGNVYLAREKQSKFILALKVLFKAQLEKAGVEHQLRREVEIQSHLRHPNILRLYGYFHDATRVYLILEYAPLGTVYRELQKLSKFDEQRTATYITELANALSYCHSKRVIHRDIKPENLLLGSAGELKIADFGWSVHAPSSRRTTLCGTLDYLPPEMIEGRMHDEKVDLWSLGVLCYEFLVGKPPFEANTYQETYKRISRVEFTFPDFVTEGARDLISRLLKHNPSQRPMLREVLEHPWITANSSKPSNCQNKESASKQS
Kind of experiment: Aurora-A kinase assay (KinaseProfiler / Kinase HotSpot). The following applies: compound at 1 μM; read-out: % Inhibition @1 μM Auroro-A. Here is the method:
as §1, §2

In experiment [4] the target is T4, c-Src kinase (Homo sapiens, UniProt P12931).
T4 construct: purchased Millipore (KinaseProfiler service) and/or Reaction Biology Corp. (Kinase HotSpot service)
T4 sequence (P12931 whole entry): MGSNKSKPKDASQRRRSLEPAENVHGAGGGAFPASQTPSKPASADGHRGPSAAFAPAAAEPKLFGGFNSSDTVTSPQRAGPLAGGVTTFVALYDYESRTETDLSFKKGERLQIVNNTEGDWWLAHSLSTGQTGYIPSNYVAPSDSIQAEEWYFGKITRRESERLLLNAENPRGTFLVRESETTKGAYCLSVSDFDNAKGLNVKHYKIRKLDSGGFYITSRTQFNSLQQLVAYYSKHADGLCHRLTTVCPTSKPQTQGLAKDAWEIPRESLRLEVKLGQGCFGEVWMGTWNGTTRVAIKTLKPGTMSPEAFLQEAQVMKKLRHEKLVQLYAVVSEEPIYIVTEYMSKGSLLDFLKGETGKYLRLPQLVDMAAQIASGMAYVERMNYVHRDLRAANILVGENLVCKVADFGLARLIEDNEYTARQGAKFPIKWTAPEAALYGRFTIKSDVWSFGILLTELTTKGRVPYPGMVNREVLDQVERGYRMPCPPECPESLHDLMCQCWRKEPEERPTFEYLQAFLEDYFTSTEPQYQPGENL
Kind of experiment: c-Src kinase assay (KinaseProfiler / Kinase HotSpot). Conditions: compound at 1 μM; read-out: % Inhibition @1 μM cSrc. Here is the method: as §1, §2

Experiment [5] concerns the target T5, TrkA Kinase (Homo sapiens, UniProt P04629).
T5 construct: purchased Millipore (KinaseProfiler service) and/or Reaction Biology Corp. (Kinase HotSpot service)
The experiment in a line: TrkA kinase assay (KinaseProfiler / Kinase HotSpot). Conditions: compound at 1 μM. As for the experimental part:
as §1, §2

T5 sequence (P04629 33-796): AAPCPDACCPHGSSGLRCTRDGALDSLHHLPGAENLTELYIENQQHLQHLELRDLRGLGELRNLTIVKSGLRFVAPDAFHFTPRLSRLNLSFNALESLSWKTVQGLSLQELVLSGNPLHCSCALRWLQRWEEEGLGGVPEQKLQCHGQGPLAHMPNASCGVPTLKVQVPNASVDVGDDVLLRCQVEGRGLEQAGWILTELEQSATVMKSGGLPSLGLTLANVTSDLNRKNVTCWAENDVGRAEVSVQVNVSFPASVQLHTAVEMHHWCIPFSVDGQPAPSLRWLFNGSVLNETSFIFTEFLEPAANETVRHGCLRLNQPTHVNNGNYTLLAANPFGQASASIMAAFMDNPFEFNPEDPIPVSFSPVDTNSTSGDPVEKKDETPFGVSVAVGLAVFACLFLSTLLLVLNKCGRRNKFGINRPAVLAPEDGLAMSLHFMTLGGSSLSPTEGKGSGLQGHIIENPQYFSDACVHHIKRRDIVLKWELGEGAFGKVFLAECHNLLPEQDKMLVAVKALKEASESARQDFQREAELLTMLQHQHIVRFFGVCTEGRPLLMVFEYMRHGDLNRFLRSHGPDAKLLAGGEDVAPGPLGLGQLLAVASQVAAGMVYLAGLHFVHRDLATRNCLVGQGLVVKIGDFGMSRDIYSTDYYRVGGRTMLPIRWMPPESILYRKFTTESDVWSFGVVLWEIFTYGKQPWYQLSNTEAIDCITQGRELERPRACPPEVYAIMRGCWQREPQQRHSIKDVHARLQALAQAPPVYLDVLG

Broadly, the inhibition is the drop in the measured response relative to a control, in per cent. In the case of `Cc1cnc(Nc2nc(Sc3ccc(N)cc3)nc(N3CCN(C)CC3)n2)s1` [Example 2], the inhibition at 1 µM was over 90% in experiment [1]; 50 to 90% in experiment [2]; 50 to 90% in experiment [3]; 50 to 90% in experiment [4]; 50 to 90% in experiment [5].

As to `Cc1cnc(Nc2nc(Sc3cccc(N)c3)nc(N3CCN(C)CC3)n2)s1` [Example 3], the inhibition at 1 µM in experiment [1] was 50 to 90%; in experiment [2], under 50%; in experiment [3], 50 to 90%; in experiment [4], under 50%; in experiment [5] it was 50 to 90%.

For the molecule `Cc1cnc(Nc2nc(Sc3ccc(NC(=O)Nc4ccccc4)cc3)nc(N3CCN(C)CC3)n2)s1` [Example 4], the inhibition at 1 µM is 50 to 90% in experiment [1]; 50 to 90% in experiment [2]; over 90% in experiment [3]; under 50% in experiment [4]; 50 to 90% in experiment [5].

On to `CCc1nc(Nc2ccc(NC(=O)Nc3ccc(C(F)(F)F)cc3)cc2)nc(Nc2cc(C)[nH]n2)n1` [Example 12], for which the inhibition at 1 µM is under 50% in experiment [1]; 50 to 90% in experiment [2]; over 90% in experiment [3]; under 50% in experiment [4]; under 50% in experiment [5].

As for `CCNC(=O)Nc1ccc(Nc2nc(CC)nc(Nc3cc(C)n(C(=O)NCC)n3)n2)cc1` [Example 13], the inhibition at 1 µM in experiment [1], in experiment [2], in experiment [3], in experiment [4] and in experiment [5] was under 50% in each case.

On to `CCc1nc(Nc2ccc(NC(=O)NC(C)C)cc2)nc(Nc2cc(C)n(C(=O)NC(C)C)n2)n1` [Example 14], for which the inhibition at 1 µM in experiment [1] was under 50%; in experiment [2], under 50%; in experiment [3], 50 to 90%; in experiment [4] it was under 50%; in experiment [5] it was under 50%.

For `CCc1nc(Nc2ccc(NC(=O)Nc3ccccc3)cc2)nc(Nc2ncc(C)s2)n1` [Example 15], the inhibition at 1 µM in experiment [1], in experiment [2], in experiment [3], in experiment [4] and in experiment [5] was under 50% in each case.

As to `CCc1nc(Nc2ccc(NC(=O)NC(C)C)cc2)nc(Nc2cc(C)[nH]n2)n1` [Example 21], the inhibition at 1 µM in experiment [1], in experiment [2], in experiment [3], in experiment [4] and in experiment [5] was under 50% throughout.

`CCNC(=O)Nc1ccc(Nc2nc(CC)nc(Nc3cc(C)[nH]n3)n2)cc1` [Example 22]: the inhibition at 1 µM in experiment [1], in experiment [2], in experiment [3], in experiment [4] and in experiment [5] was under 50% in each case.

Regarding `CCc1nc(Nc2ccc(NC(=O)Nc3ccccc3C)cc2)nc(Nc2cc(C)[nH]n2)n1` [Example 23], the inhibition at 1 µM in experiment [1] was under 50%; in experiment [2], under 50%; in experiment [3], over 90%; in experiment [4], under 50%; in experiment [5], under 50%.

`CCc1nc(Nc2ccc(NC(=O)Nc3ccc(OC)cc3)cc2)nc(Nc2cc(C)[nH]n2)n1` [Example 24]: the inhibition at 1 µM in experiment [1] was 50 to 90%; in experiment [2], 50 to 90%; in experiment [3], 50 to 90%; in experiment [4], under 50%; in experiment [5] it was under 50%.

`CCc1nc(Nc2ccc(NC(=O)NCc3ccccc3)cc2)nc(Nc2cc(C)[nH]n2)n1` [Example 25]: the inhibition at 1 µM in experiment [1] is under 50%; in experiment [2] it was over 90%; in experiment [3], 50 to 90%; in experiment [4], under 50%; in experiment [5] it was under 50%.
